Data on 53 compounds can be found in patent EP4782448A1, “SUBSTITUTED PYRIDOTRIAZOLE COMPOUND, AND PREPARATION METHOD THEREFOR AND USE THEREOF” (Origiant Pharmaceutical Co., Ltd., priority 2023, dated 2025).

Each structure is given as a SMILES string. pEC50, pIC50: −log10 of the molar value.

Usually pIC50 stands for −log10 of the IC50, conventionally taken in molar units. A low value points to a high IC50. As a reminder, the pEC50 is −log10 of the EC50, conventionally taken in molar units.

One assay has as its target T1, RIPK1 Kinase (Homo sapiens, UniProt Q13546).
T1 construct: purchased Eurofins (Kinase Profiler service)
T1 sequence (Q13546 1-671): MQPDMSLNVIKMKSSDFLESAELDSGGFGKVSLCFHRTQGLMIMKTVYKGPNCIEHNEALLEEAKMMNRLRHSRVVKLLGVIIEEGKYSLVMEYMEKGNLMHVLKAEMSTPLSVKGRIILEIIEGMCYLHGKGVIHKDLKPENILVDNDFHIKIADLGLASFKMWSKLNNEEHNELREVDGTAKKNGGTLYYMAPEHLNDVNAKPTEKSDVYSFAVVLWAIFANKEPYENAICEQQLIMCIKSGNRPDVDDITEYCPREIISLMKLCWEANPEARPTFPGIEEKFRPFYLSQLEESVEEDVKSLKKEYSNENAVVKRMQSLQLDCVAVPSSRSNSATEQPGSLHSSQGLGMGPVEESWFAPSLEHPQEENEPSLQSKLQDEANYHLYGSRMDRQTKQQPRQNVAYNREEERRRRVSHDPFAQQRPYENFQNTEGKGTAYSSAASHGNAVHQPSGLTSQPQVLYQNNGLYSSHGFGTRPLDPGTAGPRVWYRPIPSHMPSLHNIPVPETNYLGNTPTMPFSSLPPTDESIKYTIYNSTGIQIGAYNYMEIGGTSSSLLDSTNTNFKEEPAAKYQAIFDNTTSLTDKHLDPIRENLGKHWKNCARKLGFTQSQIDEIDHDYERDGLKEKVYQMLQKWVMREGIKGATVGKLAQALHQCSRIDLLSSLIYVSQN
As to the kind of experiment: biochemical.

Another assay concerns HT-29 cells. As to the kind of experiment: In vitro assay for protection of HT-29 cells from necroptosis (TNFα/Smac mimetic/Z-VAD-FMK induction, CCK8 readout). It counts as cell-based. The following applies: TNFα/Smac mimetic/Z-VAD-FMK for 24 h; inhibition of necroptosis; read-out: HT-29 (EC50).

Method for RIPK1 Kinase: This assay was completed using the Kinase Profiler service provided by Eurofins. The experimental method was as follows: The small molecule compound to be tested (0.001-10 µM) and the protein kinase to be tested were incubated with a buffer containing a substrate, 10 mM magnesium acetate, and [γ-^33P-ATP]. The reaction was initiated by adding a Mg\ATPmix. After incubation at room temperature for a period of time, a 3% phosphate solution was added to the buffer to terminate the reaction. Subsequently, 10 µL of the reaction mixture was quantitatively pipetted and dropped onto P30 filter paper. The paper was washed three times with 75 mM phosphate solution and once with methanol. After drying, scintillation fluid was added for scinticounting. The inhibitory activity of the compound was expressed as the half-maximal inhibitory concentration (IC50). The IC50 values were derived by fitting the inhibition rates corresponding to the respective concentration gradients.

`C[C@H](NC(=O)c1cn(C)c2ccc(-c3ccn4nc(NC(=O)CN5CCC(O)CC5)nc4c3)cc12)c1ccc(F)cc1` [Compound 6] had a pIC50 on RIPK1 Kinase of 7.00 to 8.00.
On to `C[C@H](NC(=O)c1cn(C)c2ccc(-c3ccn4nc(NC(=O)C(=O)N5CCOCC5)nc4c3)cc12)c1ccc(F)cc1` [Compound 9], for which the pIC50 against RIPK1 Kinase is 7.00 to 8.00.
On the same count and under the same terms, as for `C[C@H](NC(=O)c1cn(C)c2ccc(-c3ccn4nc(NC(=O)[C@@H]5CCC(=O)N5)nc4c3)cc12)c1ccc(F)cc1` [Compound 14], the figure is 7.00 to 8.00; as for `C[C@H](NC(=O)c1cn(C)c2ccc(-c3ccn4nc(NC(=O)CN5CCOC(C)(C)C5)nc4c3)cc12)c1ccc(F)cc1` [Compound 18], 7.00 to 8.00.
Consider `C[C@H](NC(=O)c1cn(C)c2ccc(-c3ccn4nc(NC(=O)CN5CCC6(CC5)OCCO6)nc4c3)cc12)c1ccc(F)cc1` [Compound 27], for which the pIC50 on RIPK1 Kinase is 7.00 to 8.00.
At RIPK1 Kinase, `C[C@H](NC(=O)c1cn(C)c2ccc(-c3ccn4nc(NC(=O)CN5CC(C)(C#N)C5)nc4c3)cc12)c1ccc(F)cc1` [Compound 29] gave a pIC50 of 7.00 to 8.00.
Still for that read-out and setting: as for `C[C@H](NC(=O)c1cn(C)c2ccc(-c3ccn4nc(NC(=O)CN5CCC(N6CCOCC6)CC5)nc4c3)cc12)c1ccc(F)cc1` [Compound 38], the figure is 7.00 to 8.00.
`C[C@H](NC(=O)c1cn(C)c2ccc(-c3ccn4nc(NC(=O)CN5C[C@H]6C[C@@H]5CO6)nc4c3)cc12)c1ccc(F)cc1` [Compound 39]: the pIC50 against RIPK1 Kinase is 7.00 to 8.00.
Regarding `C[C@H](NC(=O)c1cn(C)c2ccc(-c3ccn4nc(NC(=O)CN(C)C)nc4c3)cc12)c1ccc(F)cc1` [Compound 40], at RIPK1 Kinase, the pIC50 was 7.00 to 8.00.
Take `C[C@H](NC(=O)c1cn(C)c2ccc(-c3ccn4nc(NC(=O)CN5CC(F)(F)C5)nc4c3)cc12)c1ccc(F)cc1` [Compound 42]: the pIC50 on RIPK1 Kinase is 7.00 to 8.00.
On the same count and under the same terms, the same measure for `C[C@@H]1CN(CC(=O)Nc2nc3cc(-c4ccc5c(c4)c(C(=O)N[C@@H](C)c4ccc(F)cc4)cn5C)ccn3n2)C[C@H](C)O1` [Compound 46]: 7.00 to 8.00; for `C[C@H](NC(=O)c1cn(C)c2ccc(-c3ccn4nc(NC(=O)CN5CCN(C)CC5)nc4c3)cc12)c1ccc(F)cc1` [Compound 51]: 7.00 to 8.00.
Consider `Cn1cc(C(=O)N2CC(F)(F)CC2c2ccc(F)cc2)c2cc(-c3ccn4nc(NC(=O)C5CCOC5)nc4c3)ccc21` (centres unmarked) [Compound 159], for which the pEC50 in the assay on HT-29 cells was > 9.00.
Same read-out and setting: as for `Cn1cc(C(=O)N2CC(F)(F)CC2c2ccc(F)cc2)c2cc(-c3ccn4nc(NC(=O)N5CCOCC5)nc4c3)ccc21` (centres unmarked) [Compound 160], the figure is > 9.00; as for `Cn1cc(C(=O)N[C@H](c2ccc(F)cc2)C(F)F)c2cc(-c3ccn4nc(NC(=O)CN5CCCCC5)nc4c3)ccc21` [Compound 163], > 9.00.
Consider `Cn1cc(C(=O)N[C@H](c2ccc(F)cc2)C(F)F)c2cc(-c3ccn4nc(NC(=O)CC#N)nc4c3)ccc21` [Compound 164], for which the pEC50 in the assay on HT-29 cells was > 9.00.
On the same count and under the same terms, as for `CO[C@@H](C)C(=O)Nc1nc2cc(-c3ccc4c(c3)c(C(=O)N[C@H](c3ccc(F)cc3)C(F)F)cn4C)ccn2n1` [Compound 165], the figure is > 9.00; as for `COCC(=O)Nc1nc2cc(-c3ccc4c(c3)c(C(=O)N[C@H](c3ccc(F)cc3)C(F)F)cn4C)ccn2n1` [Compound 166], > 9.00; as for `CN(C)CC(=O)Nc1nc2cc(-c3ccc4c(c3)c(C(=O)N[C@H](c3ccc(F)cc3)C(F)F)cn4C)ccn2n1` [Compound 167], > 9.00.
Regarding `CN1CCC(C(=O)Nc2nc3cc(-c4ccc5c(c4)c(C(=O)N[C@H](c4ccc(F)cc4)C(F)F)cn5C)ccn3n2)C1` (some centres unmarked) [Compound 168], the negative logarithm of the EC50 (pEC50) in the assay on HT-29 cells is > 9.00.
On the same count and under the same terms, the same measure for `Cn1cc(C(=O)N2N=CCC2c2ccc(F)cc2)c2cc(-c3ccn4nc(NC(=O)C5CCOC5)nc4c3)ccc21` (centres unmarked) [Compound 169]: > 9.00.
Same read-out and setting: the same measure for `Cn1cc(C(=O)N2N=CCC2c2ccc(F)cc2)c2cc(-c3ccn4nc(NC(=O)C5CC5)nc4c3)ccc21` (centres unmarked) [Compound 170]: > 9.00.
Turning to `Cn1cc(C(=O)Nc2nc3cc(-c4ccc5c(c4)c(C(=O)N4N=CCC4c4ccc(F)cc4)cn5C)ccn3n2)cn1` (centres unmarked) [Compound 171], the pEC50 in the assay on HT-29 cells is 8.00 to 9.00.
The same measure, in the same setting: as for `Cn1cc(C(=O)N2N=CCC2c2ccc(F)cc2)c2cc(-c3ccn4nc(NC(=O)N5CCOCC5)nc4c3)ccc21` (centres unmarked) [Compound 172], the figure is 8.00 to 9.00.
As to `CC(C(=O)Nc1cn(C)c2ccc(-c3ccn4nc(NC(=O)C5CC5)nc4c3)cc12)c1ccc(F)cc1` (centres unmarked) [Compound 177], the pEC50 in the assay on HT-29 cells is 7.00 to 8.00.
Same read-out and setting: the same measure for `CC(C(=O)Nc1cn(C)c2ccc(-c3ccn4nc(NC(=O)[C@H]5CCCO5)nc4c3)cc12)c1ccc(F)cc1` (some centres unmarked) [Compound 178]: 6.00 to 7.00; for `CC(C(=O)Nc1cn(C)c2ccc(-c3ccn4nc(NC(=O)[C@H]5CCCO5)nc4c3)cc12)c1ccc(F)cc1` (some centres unmarked) [Compound 179]: 6.00 to 7.00; for `CC(C(=O)Nc1nn(C)c2ccc(-c3ccn4nc(NC(=O)CN(C)C)nc4c3)cc12)c1ccc(F)cc1` (centres unmarked) [Compound 180]: 5.00 to 6.00.
The same measure, in the same setting: the same measure for `CC(C(=O)Nc1nn(C)c2ccc(-c3ccn4nc(NC(=O)c5cnn(C)c5)nc4c3)cc12)c1ccc(F)cc1` (centres unmarked) [Compound 181]: 5.00 to 6.00.
As for `Cn1cc(C(=O)N[C@@H](CF)c2cccc(F)c2)c2cc(-c3ccn4nc(NC(=O)[C@H]5CCCO5)nc4c3)ccc21` [Compound 183], the pEC50 in the assay on HT-29 cells is > 9.00.
Same read-out and setting: the same measure for `Cn1cc(C(=O)N[C@@H]2C[C@H]2c2ccc(F)c(F)c2)c2cc(-c3ccn4nc(NC(=O)[C@H]5CCCO5)nc4c3)ccc21` [Compound 184]: 6.00 to 7.00; for `Cn1cc(C(=O)N2CCC[C@H]2c2ccc(F)cc2)c2cc(-c3ccn4nc(NC(=O)C5CCOC5)nc4c3)ccc21` (some centres unmarked) [Compound 186]: > 9.00; for `Cn1cc(C(=O)Nc2nc3cc(-c4ccc5c(c4)c(C(=O)N[C@@H](CF)c4ccc(F)cc4)nn5C)ccn3n2)cn1` [Compound 187]: > 9.00.
Take `Cn1nc(C(=O)N[C@@H](CF)c2ccc(F)cc2)c2cc(-c3ccn4nc(NC(=O)C5CCOC5)nc4c3)ccc21` (some centres unmarked) [Compound 188]: the pEC50 with HT-29 cells was > 9.00.
The same measure, in the same setting: as for `Cn1nc(C(=O)N[C@@H](CF)c2ccc(F)cc2)c2cc(-c3ccn4nc(NC(=O)N5CCOCC5)nc4c3)ccc21` [Compound 189], the figure is > 9.00.
Still for that read-out and setting: the same measure for `Cn1nc(C(=O)N[C@@H](CF)c2ccc(F)cc2)c2cc(-c3ccn4nc(NC(=O)C5CC5)nc4c3)ccc21` [Compound 190]: > 9.00; for `C[C@H](NC(=O)c1nn(C)c2ccc(-c3ccn4nc(NC(=O)C5CC5)nc4c3)cc12)c1ccc(F)cc1` [Compound 192]: > 9.00; for `C[C@H](NC(=O)c1nn(C)c2ccc(-c3ccn4nc(NC(=O)[C@H]5CCCO5)nc4c3)cc12)c1ccc(F)cc1` [Compound 193]: > 9.00.
On the same count and under the same terms, the same measure for `C[C@H](NC(=O)c1nn(C)c2ccc(-c3ccn4nc(NC(=O)N5CCOCC5)nc4c3)cc12)c1ccc(F)cc1` [Compound 195]: > 9.00; for `CC[C@H](NC(=O)c1cn(C)c2ccc(-c3ccn4nc(NC(=O)CN5CCOCC5)nc4c3)cc12)c1ccc(F)cc1` [Compound 197]: > 9.00; for `CCn1cc(C(=O)N[C@@H](CF)c2ccc(F)cc2)c2cc(-c3ccn4nc(NC(=O)N5CCOCC5)nc4c3)ccc21` [Compound 200]: > 9.00.
Turning to `CN(C(=O)c1cn(C)c2ccc(-c3ccn4nc(NC(=O)C5CC5)nc4c3)cc12)[C@H]1CCc2cc(F)ccc21` [Compound 205], the pEC50 in the assay on HT-29 cells was 8.00 to 9.00.
As for `CC(c1ccc(F)cc1)n1cnc(-c2cn(C)c3ccc(-c4ccn5nc(NC(=O)c6cnn(C)c6)nc5c4)cc23)n1` (centres unmarked) [Compound 208], the negative-log EC50 (pEC50) with HT-29 cells was 6.00 to 7.00.
Same read-out and setting: the same measure for `CC(c1ccc(F)cc1)n1cnc(-c2cn(C)c3ccc(-c4ccn5nc(NC(=O)C6CC6F)nc5c4)cc23)n1` (centres unmarked) [Compound 209]: 6.00 to 7.00.
On to `Cn1cc(C2=NC(c3ccc(F)cc3)CO2)c2cc(-c3ccn4nc(NC(=O)C5CC5F)nc4c3)ccc21` (centres unmarked) [Compound 211], for which the negative-log EC50 (pEC50) in the assay with HT-29 cells was 7.00 to 8.00.
The same measure, in the same setting: as for `Cn1cc(C2=NC(c3ccc(F)cc3)CO2)c2cc(-c3ccn4nc(NC(=O)C5CC5)nc4c3)ccc21` (centres unmarked) [Compound 212], the figure is 7.00 to 8.00.
Take `Cn1cc(C(=O)Nc2nc3cc(-c4ccc5c(c4)c(C4=NC(c6ccc(F)cc6)CO4)cn5C)ccn3n2)cn1` (centres unmarked) [Compound 213]: the pEC50 in the assay on HT-29 cells is 7.00 to 8.00.
For the compound `COCCn1cc(C(=O)N[C@@H](CF)c2ccc(F)cc2)c2cc(-c3ccn4nc(NC(=O)N5CCOCC5)nc4c3)ccc21` [Compound 214], in the assay on HT-29 cells, the pEC50 was 7.00 to 8.00.
On to `COCCn1cc(C(=O)N[C@@H](CF)c2ccc(F)cc2)c2cc(-c3ccn4nc(NC(=O)CC#N)nc4c3)ccc21` [Compound 215], for which the pEC50 in the assay with HT-29 cells was 7.00 to 8.00.
Same read-out and setting: the same measure for `COC(C)C(=O)Nc1nc2cc(-c3ccc4c(c3)c(-c3nncn3C(C)c3ccc(F)cc3)cn4C)ccn2n1` (centres unmarked) [Compound 216]: 7.00 to 8.00; for `CC(c1ccc(F)cc1)n1cnnc1-c1cn(C)c2ccc(-c3ccn4nc(NC(=O)C5CCOC5)nc4c3)cc12` (centres unmarked) [Compound 217]: 7.00 to 8.00; for `C[C@H](NC(=O)c1cn(C)c2ccc(-c3ccn4nc(N5CCOCC5=O)nc4c3)cc12)c1ccc(F)cc1` [Compound 218]: 7.00 to 8.00.
On the same count and under the same terms, the same measure for `C[C@H](NC(=O)c1cn(C)c2ccc(-c3ccn4nc(N5CCOCC5)nc4c3)cc12)c1ccc(F)cc1` [Compound 219]: 8.00 to 9.00.
